Columns and labels:
[1] = test system: LoVo; assay: Cell proliferation assay (CellTiter-Glo), LoVo; assay type: cell-based; conditions: Homo sapiens, 120 h, 5 days incubation
Description: (§1) SW48 cells were plated at a density of 1,500 cells/well, and LoVo, HCT116, and SW620 cells were plated at a density of 800 cells/well in a 96-well cell culture plate, and cultured in a 37°C incubator overnight. The test compounds, which were gradient-diluted with DMSO, were added, and after incubation for 5 days, cell viability was detected using a CellTiter-Glo kit. The CellTiter-Glo reagent was equilibrated to room temperature, and an appropriate amount was added to the cell plate, followed by shaking at room temperature for 12 min. The luminescence signal was detected using a microplate reader.
(§2) The luminescence signal values of the DMSO-treated wells and cell-free wells were used as negative and positive controls, respectively, to calculate the inhibition rate of compound on cell proliferation. The concentration-inhibition curve was fitted using the "log(inhibitor) vs. normalized response -- Variable slope" equation in GraphPad Prism 8 software to obtain the IC50. [formula]

[2] = test system: SW620 cells; assay: γH2AX induction assay (HTRF Phospho-H2AX), SW620; assay type: cell-based; conditions: Homo sapiens, SW-620 (MSS), incubated for 2-3 days, read-out: γ-H2AX induction SW-620 (EC50 nM)
Description: (§3) SW48, HCT116, and SW620 cells were plated into 96-well cell culture plates at a density of 15,000-25,000 cells/well and cultured overnight in a 37°C incubator. The test compounds, which were gradient-diluted with DMSO, were added and incubated for 2-3 days. The γ-H2AX level was detected using HTRF Phospho-H2AX (SER139) Detection Kits. The 4× Lysis buffer and Detection buffer were equilibrated to room temperature for later use. The 4× Lysis buffer was diluted to 1× Lysis buffer using ddH2O. After the medium was aspirated, 50 µL of 1× Lysis buffer was added to each well and shaken at room temperature for 30 minutes for lysis. 16 µL of lysate was transferred to a 384-well plate, followed by the addition of 4 µL of diluted antibody mixture (Phospho-H2AX d2 antibody and Phospho-H2AX Eu Cryptate antibody were each diluted 20-fold using Detection buffer, and the two antibodies were then mixed uniformly at a 1:1 volume ratio). The mixture was incubated at room temperature for 2-24 h, and fluorescence signals at […] and 615 nm were detected using a microplate reader. Parallel treatment plates were simultaneously set up in the experiment, and cell viability was detected using the CellTiter-Glo kit. The CellTiter-Glo reagent was equilibrated to room temperature, and an appropriate amount was added to the cell plate, followed by shaking at room temperature for 12 min. The luminescence signal was detected using a microplate reader.
(§4) The fluorescence signal values of DMSO-treated wells and positive drug-treated wells were used as negative and positive controls, respectively, to calculate the level of γ-H2AX induced by the compounds. The concentration-induction rate curve was fitted using the "log(agonist) vs. response -- Variable slope (four parameters)" equation in GraphPad Prism 8 software to obtain the EC50. [formula] [formula]

[3] = test system: SW48 cells; assay: Cell proliferation assay (CellTiter-Glo), SW48; assay type: cell-based; conditions: Homo sapiens, SW48, 120 h, SW-48, 5 days incubation
Description: as §1, §2

[4] = Pharmacokinetic test in mice; assay type: in vivo; conditions: mouse, CD-1 mice, male, oral gavage, 10 mg/kg, plasma
Description: CD-1 mice were taken as test animals. Example 4, Example 22, and Comparative Example HRO761 were given by gavage. The drug concentrations in mouse plasma at different time points were determined by LC-MS/MS to investigate the pharmacokinetic characteristics of the compounds of the present disclosure in mice.
• Experimental drugs: Example 4, Example 22, and Comparative Example HRO761; • Animals: CD-1 mice, male, 24-25 g, purchased from Shanghai Jihui Laboratory Animal Care Co.,Ltd.
An appropriate amount of Example 4, Example 22, and Comparative Example HRO761 was weighed and sequentially added to an appropriate amount of dimethyl sulfoxide, solutol, and saline (final solvent: 5% DMSO + 10% solutol + 85% saline). The mixture was vortexed and sonicated to prepare a 1.0 mg/mL dosing solution.
Three mice in gavage groups of Example 4, Example 22, and Comparative Example HRO761 were administered by oral gavage after overnight fasting (dose: 10 mg/kg, administration volume: 10 mL/kg), and the mice were fed 4 h after administration.
(§5) 0.04 mL of blood was collected from the animals before administration and at 0.083 h, 0.25 h, 0.5 h, 1 h, 2 h, 4 h, 6 h, 8 h, and 24 h after administration, and anticoagulated with sodium heparin. Blood samples were placed on ice after collection, and plasma was separated by centrifugation (centrifugation conditions: 8000 rpm, 5 min). The collected plasma was stored at -80°C before analysis.
LC-MS/MS was used to determine the content of the test compound in mouse plasma after intragastric administration.
(§6) Based on the calculated concentrations of the compounds in plasma at different time points, the pharmacokinetic parameters of Example 4, Example 22, and Comparative Example HRO761 in mice were calculated using winnonlin software. The pharmacokinetic parameters of Example 4, Example 22, and Comparative Example HRO761 of the present disclosure are shown in Table 13.

[5] = test system: SW48; assay: γH2AX induction assay (HTRF Phospho-H2AX), SW48; assay type: cell-based; conditions: Homo sapiens, SW-48, incubated for 2-3 days, read-out: γ-H2AX induction SW-48 (EC50 nM)
Description: as §3, §4

[6] = test system: HCT116; assay: γH2AX induction assay (HTRF Phospho-H2AX), HCT116; assay type: cell-based; conditions: Homo sapiens, HCT-116, incubated for 2-3 days, read-out: γ-H2AX induction HCT-116 (EC50 nM)
Description: as §3, §4

[7] = test system: SW620 cells; assay: Cell proliferation assay (CellTiter-Glo), SW620; assay type: cell-based; conditions: Homo sapiens, 120 h, SW-620 (MSS), 5 days incubation
Description: as §1, §2

[8] = Pharmacokinetic test in rats; assay type: in vivo; conditions: rat, SD rats, male, oral gavage, 10 mg/kg, plasma
Description: SD rats were taken as test animals. Example 4, Example 15, and Comparative Example HRO761 were given by gavage. The drug concentrations in rat plasma at different time points were determined by LC-MS/MS to investigate the pharmacokinetic characteristics of Example 4, Example 15, and Comparative Example HRO761 in rats.
• Experimental drugs: Example 4, Example 15, and Comparative Example HRO761; • Animals: SD rats, male, 240-260 g, purchased from Shanghai Jihui Laboratory Animal Care Co.,Ltd.
An appropriate amount of Example 4, Example 15, and Comparative Example HRO761 was weighed and added to an appropriate amount of dimethyl sulfoxide, solutol, and saline (final solvent: 5% DMSO + 10% solutol + 85% saline). The mixture was vortexed and sonicated to prepare a 1.0 mg/mL dosing solution.
The rats in gavage groups (3 rats per group) of Example 4, Example 15, and Comparative Example HRO761 were administered by oral gavage after overnight fasting (dose: 10 mg/kg, administration volume: 10 mL/kg), and the rats were fed 4 h after administration.
as §5, with “0.2” for “0.04”
The contents of Example 4, Example 15, and Comparative Example HRO761 in rat plasma after oral administration were determined by LC-MS/MS.
as §6, with “15,” for “22,”, “rats” for “mice”, “14.” for “13.”

[9] = test system: HCT116 cells; assay: Cell proliferation assay (CellTiter-Glo), HCT116; assay type: cell-based; conditions: Homo sapiens, 120 h, HCT-116, 5 days incubation
Description: as §1, §2

IC50 [1]: 220 nM | EC50 [2]: > 10000 nM | IC50 [3]: 144 nM | Cmax [4]: 11200 ng/mL | AUC ([4]; read-out: AUC0-i): 28300 ng·h/mL | EC50 [5]: 324 nM | EC50 [6]: 640 nM | IC50 [7]: > 25000 nM | Cmax [8]: 6960 ng/mL | AUC ([8]; read-out: AUC0-i): 63600 ng·h/mL | IC50 [9]: 143 nM
Compound: CCc1c(N2CCN(C(=O)c3ncnc(C)c3O)CC2)c(=O)n2nc(C3=CCOCC3)nc2n1CC(=O)Nc1ccc(C(F)(F)F)cc1Cl [HRO761, reference compound]

— EP4692088A1, “COMPOUND ACTING AS WRN HELICASE INHIBITOR” (SHANGHAI JEYOU PHARMACEUTICAL CO., LTD., priority 2023, dated 2024)
